According to patent US20260373132A1, “PERK INHIBITORHC-5404 IN COMBINATION WITH ANTI-PD-1 ANTIBODY AND/OR AN ANTIANGIOGENETIC AGENT FOR USE IN THE TREATMENT OF CANCER” (HIBERCELL, INC., priority 2022, published 2026):

What was measured:
[1] = mouse body weight / tolerability; assay type: in vivo; conditions: for body weight loss: 786-O xenografts, single agent PO, 21 days (FIG. 26)
Procedure: (§1) Body weight and tumor volume were measured twice weekly. Tumor volume was calculated using the formula [tumor volume (mm^3)=π/6×length×width^2] and plotted as means+SEM. The percentage of tumor growth inhibition was calculated at the end of the study using the formula: […], if ΔT>0, ΔT, mean tumor volume of the drug-treated group on the observation day of the study—mean tumor volume of the drug-treated group on initial day of dosing; ΔC, mean tumor volume of the control group on the observation day of the study—mean tumor volume of the control group on initial day of dosing. Regression was calculated using the formula=100×ΔT/Tinitial, if ΔT<0. Animals with >50% regressions were partial responders. Animals with tumor volume of 0 (no measurable tumor) were considered as complete responders, and animals with <50% tumor regression and 30% growth over the baseline were considered as stable disease. Animals with tumors>30% increase over the baseline were considered progressive disease. The % change in body weight was calculated by the formula (body weight on observation day−body weight on initial day)/body weight on initial day×100%.

786-O RCC xenograft = 786-O RCC xenograft tumor growth; assay type: in vivo, mouse; conditions: for effect on tumor volume: single agent, efficacy arms (FIG. 28)
Procedure: (§2) Xenograft RCC models were generated as follows: Female NOD.SCID mice (6-8 weeks of age) were injected with A498 RCC cells (5×10^6 cells/mouse), female Balb/c Nude mice (6-8 weeks old) were implanted with 786-O RCC cells (5×10^6 cells/mouse) or Caki-1 RCC cells (6×10^6 cells/mouse), female Athymic Nude-Foxn1nu mice (7-8 weeks of age) were implanted with MFE280 endometrial cells (10×10^6 cells/mouse). Cells were implanted into the flank of animals.
(§3) Once tumor tumors reached volume of typically 150-250 mm^3, animals were randomized by tumor volume into the treatment groups of 8 or 10 animals per group. In the single animal trial with RCC PDX models, only one animal per group was enrolled.
as §1

[2] = tested on: tumor vasculature of 786-O xenografts; assay: IHC of tumor vasculature in 786-O xenografts; assay type: in vivo, mouse
Procedure: (§4) Formalin-fixed paraffin-embedded samples were sectioned at 5 μm thickness and mounted on Superfrost Plus microscope slides (Fisher Scientific). All immunohistochemical (IHC) staining was performed on Bond Rx auto-stainer (Leica Biosystems) using the conventional TSA-amplified detection system. Primary antibodies used were as follows: α-CD31 (Abcam #ab182981), α-smooth muscle actin (SMA; Abcam #ab124964), α-Meca32 (Novus Biologicals #NB100-77668). TSA-conjugated Alexa488 and Alexa647 fluorophores from Invitrogen (#B40953 and #B40958) were used at 1:500 dilution. Slides were counterstained with DAPI and cover slipped using Mowiol antifade mounting media (Sigma #D2522).
(§5) Slides were imaged with Aperio Versa 200 (Leica Biosystems) whole-slide scanner using 10×/0.32NA objective, and the data were analyzed using custom-written macros in ImageJ/FIJI (NIH). Briefly, 150 μm of outer edges of the tumor sections were eliminated from the analysis. Gaussian-blurred DAPI channel was used to measure the area of the tissue. Scans of […] were processed with median filter to remove noise, then positive areas were measured with appropriate threshold levels. % positive area for each marker was calculated. CD31-SMA double positive areas were measured via image calculation of the binary images. One-way ANOVA and pair-wise comparisons were performed on the data using Prism GraphPad.
PERK is an adaptive stress response that links hypoxia and nutrient deprivation with proangiogenic signaling. The effect of HC-5404 on tumor vasculature when administered in combination with antiangiogenic VEGFR-TKIs was investigated.
As immature blood vessels mature, they develop a mural layer of cells that express smooth muscle actin (SMA), which encircles and stabilizes the maturing vessel. Co-staining for both CD31 and SMA was conducted to determine whether treatments were affecting mature or immature tumor blood vessels.
This example investigated the inhibition the effect of cabozantinib on the formation of new tumor vasculature and on pericytes following procedures analogous to those described above.

pPERK in 786-O tumors = assay: pPERK in 786-O tumor xenografts; assay type: in vivo, mouse; conditions: for pPERK accumulation in 786-O tumors: PD arm, 7 days of dosing, single agent; for pPERK levels in 786-O tumors: single agent PO, several dose levels, 21 days (FIG. 26)
A498 RCC xenograft = A498 RCC xenograft tumor growth; assay type: in vivo, mouse; conditions: single agent: HC-5404 30 mg/kg PO BID or sunitinib 20 mg/kg PO QD (FIG. 31)
Procedure: as §2, §3, §1

Caki-1 RCC xenograft = Caki-1 RCC xenograft tumor growth; assay type: in vivo, mouse; conditions: HC-5404 or sunitinib monotherapy, compared with A498 (FIG. 32)
Procedure: as §2, §3, §1

[3] = tested on: RCC patient-derived xenografts (PDXs); assay: single-animal study in RCC PDX models; assay type: in vivo, mouse
Description: For patient derived xenograft model generation, small pieces of neuroendocrine pancreatic cancers were implanted into female NSG mice (6-8 weeks of age), fragments of Huprime gastric cancers were implanted into female Balb/c nude mice and for a single animal trial in RCC PDX models, tumor fragments from selected RCC PDX models were implanted into mice unilaterally.
as §3
(§6) Body weight and tumor volume were measured twice weekly. Tumor volume was calculated using the formula [tumor volume (mm^3)=π/6×length×width^2] and plotted as means+SEM. The percentage of tumor growth inhibition was calculated at the end of the study using the formula: 100−[1−(ΔT/ΔC)], if ΔT>0, ΔT, mean tumor volume of the drug-treated group on the observation day of the study—mean tumor volume of the drug-treated group on initial day of dosing; ΔC, mean tumor volume of the control group on the observation day of the study—mean tumor volume of the control group on initial day of dosing. Regression was calculated using the formula=100×ΔT/Tinitial, if ΔT<0. Animals with >50% regressions were partial responders. […]

[4] = tested on: tumor vasculature and pericyte cells of 786-O xenografts progressed on axitinib; assay: IHC of tumor vasculature and pericytes in 786-O xenografts that progressed on axitinib; assay type: in vivo, mouse
Procedure: as §4, §5
After 14 days of treatments, 77 mice bearing the largest tumors were rerandomized into four PD arms (n=8), four efficacy arms (n=10), and 5 tumors sampled on day of rerandomization as a baseline. The remaining animals were removed from study.

[5] = tested on: MFE280 endometrial cancer model; assay: MFE280 endometrial xenograft tumor growth; assay type: in vivo, mouse; conditions: single agent: HC-5404 30 mg/kg PO BID or lenvatinib 10 mg/kg QD (FIG. 77)
Procedure: as §2, §3
as §6, with “ΔT<0.” for “ΔT<0. Animals with >50% regressions were partial responders.”

[6] = 7 days after rerandomization (FIG. 92)

Q: With `COc1cc2nccc(Oc3ccc(NC(=O)C4(C(=O)Nc5ccc(F)cc5)CC4)cc3)c2cc1OC` [cabozantinib] as the molecule, how does the body weight loss [1] read?
A: no treatment-associated body weight loss was observed

Q: What about the mouse body weight ([1]; 786-O, HC-5404 3, 10, 30 mg/kg BID and/or cabozantinib 30 mg/kg QD (FIG. 53)) of the same molecule?
A: did not affect mouse body weight

Q: What about the partial responses (786-O RCC xenograft; cabozantinib 30 mg/kg QD alone or with HC-5404 10 or 30 mg/kg BID (each group)) of the same molecule?
A: 2/8

Q: And the tumor response (786-O RCC xenograft; cabozantinib 30 mg/kg QD monotherapy (FIG. 52))?
A: tumor stasis

Q: And the “effect on tumor volume” value (786-O RCC xenograft)?
A: modest effects on tumor volume

Q: And the “immature vasculature (CD31+SMA− cells)” value ([2]; cabozantinib study (FIG. 54, 55))?
A: near complete loss of immature vasculature

Q: And the “pPERK accumulation in 786-O tumors” value (pPERK in 786-O tumors)?
A: induced pPERK accumulation

Q: And the “pPERK levels in 786-O tumors” value (pPERK in 786-O tumors)?
A: dose-dependent increases in pPERK

Q: With `CCN(CC)CCNC(=O)c1c(C)[nH]c(/C=C2\C(=O)Nc3ccc(F)cc32)c1C` [sunitinib, reference compound] as the molecule, how does the “inhibition of 786-O growth” value (786-O RCC xenograft; sunitinib single agent 40 mg/kg QD (FIG. 28)) read?
A: effective inhibitor of 786-O growth

Q: And the TGI (A498 RCC xenograft)?
A: 80%

Q: What about the “pPERK accumulation in 786-O tumors” value (pPERK in 786-O tumors) of the same molecule?
A: induced pPERK accumulation

Q: And the “pPERK in 786-O xenografts” value (pPERK in 786-O tumors; sunitinib single agent)?
A: increased pPERK

Q: What about the “time course of pPERK increase in 786-O xenografts” value (pPERK in 786-O tumors; sunitinib single agent) of the same molecule?
A: increased over time

Q: And the “sensitivity of Caki-1 to monotherapy” value (Caki-1 RCC xenograft)?
A: far less sensitive

Q: Which results are given for `CNC(=O)c1ccccc1Sc1ccc2c(/C=C/c3ccccn3)n[nH]c2c1` [axitinib]?
A: body weight loss [1]: no treatment-associated body weight loss was observed; effect on tumor volume (786-O RCC xenograft): modest effects on tumor volume; partial responses (PRs) among models ([3]; 15 RCC PDX models, 28 days, PR: regression >50% vs baseline (FIG. 35)): 1/15; sensitivity of VHLwt models to axitinib ([3]; three of the VHLwt models): decreased sensitivity to axitinib; proportion of Meca32 expressing vascular endothelial cells ([2]; axitinib study (FIG. 38, 39)): decreased; immature CD31+SMA− vessels ([2]; axitinib study (FIG. 39)): decreased; mature CD31+SMA+ cells ([2]; axitinib study (FIG. 39)): did not affect; proportion of cells expressing CD31 [4, 6]: decreased by axitinib; proportion of smooth muscle actin (SMA) [4, 6]: decreased; number of Meca32+ and CD31+ cells ([4]; FIG. 41, 42): decreased; MCAM+ cells ([4]; FIG. 43, 44): decreased by axitinib; pPERK accumulation in 786-O tumors (pPERK in 786-O tumors): induced pPERK accumulation; pPERK levels in 786-O tumors (pPERK in 786-O tumors): dose-dependent increases in pPERK

Q: Which body weight loss [1] does the source give for `COc1cc2nccc(Oc3ccc(NC(=O)NC4CC4)c(Cl)c3)c2cc1C(N)=O` [lenvatinib] here?
A: no treatment-associated body weight loss was observed

Q: And the “effect on tumor volume” value (786-O RCC xenograft)?
A: modest effects on tumor volume

Q: What about the “pPERK accumulation in 786-O tumors” value (pPERK in 786-O tumors) of the same molecule?
A: induced pPERK accumulation

Q: And the “pPERK levels in 786-O tumors” value (pPERK in 786-O tumors)?
A: dose-dependent increases in pPERK

Q: What about the TGI % [5] of the same molecule?
A: ~ 85%
